According to patent publication US10563244B2, “Nanopatterned extracellular matrices enable cell-based assays with a mass spectrometric readout” (NORTHWESTERN UNIVERSITY, priority 2016, dated 2020):

System: cellular phosphatases (phosphotyrosine phosphatases) in HeLa cells
Assay: TCAL-SAMDI cell-based phosphatase activity assay (HeLa cells on fibronectin nanoarrays, lysis, SAMDI-MS readout)
Method: Cell-Based Assay for Enzyme Activity. HeLa cells were obtained from ATCC and cultured in DMEM medium supplemented with fetal bovine serum, glutamine, penicillin and streptomycin. All cells were cultured in a humidified incubator at 37° C. and 5% CO2. Cells were trypsinized and suspended in media, and the average number of cells per μL was estimated using a hemocytometer to seed the desired number of cells per spot. The volume of media per spot was 3 μL for all experiments. Cells were cultured on the monolayers presenting fibronectin and the phosphatase peptide substrate on glass slides for 2 hours under standard growth conditions. Lysis buffer (1 μL) was delivered manually to each spot and the lysate was allowed to react with the monolayer for 1 hour at 37° C. in a humidity chamber. […] A solution of 2,4,6-trihydroxyacetopehenone (THAP) in acetone (30 mg/mL) was delivered to each spot on the array and the surfaces were analyzed using an Applied Biosystems 5800 MALDI TOF/TOF instrument with a 20 kV accelerating voltage in positive reflector mode. […]
HeLa cells were seeded on the fibronectin nanopatterned surfaces and cultured the cells for two hours under standard media conditions (FIG. 4A). […] The mixed monolayer was rinsed with PBS buffer and then treated with 2,4,6-trihydroxyacetophenone (THAP) matrix (30 mg/mL in acetone) and analyzed with SAMDI-MS. […]

O=C(CBr)c1ccc(O)cc1 [PTPI-I, PTP Inhibitor I]
decrease in phosphatase activity (HeLa cells, 300 μM added to cell cultures, two hour culture period, then lysis and SAMDI-MS): 92%
phosphatase activity after addition of inhibitor (SAMDI spectra, FIG. 4C) (figure legend says inhibitor added to the lysis buffer, HeLa cells on patterned monolayers): loss of phosphatase activity
